Data from US5358961A, “Pyrrolidine derivatives” (Jin Ro Limited, priority 1991, dated 1994).

Target: T1, angiotensin converting enzyme (Oryctolagus cuniculus, UniProt P12822)
T1 construct: Rabbit lung acetone powder was extracted with 10 volumes of 50 mM sodium borate buffer; from tissue; host or cells: rabbit lung (acetone powder, borate buffer extract, 40,000 x g supernatant)
T1 sequence (P12822 34-1310): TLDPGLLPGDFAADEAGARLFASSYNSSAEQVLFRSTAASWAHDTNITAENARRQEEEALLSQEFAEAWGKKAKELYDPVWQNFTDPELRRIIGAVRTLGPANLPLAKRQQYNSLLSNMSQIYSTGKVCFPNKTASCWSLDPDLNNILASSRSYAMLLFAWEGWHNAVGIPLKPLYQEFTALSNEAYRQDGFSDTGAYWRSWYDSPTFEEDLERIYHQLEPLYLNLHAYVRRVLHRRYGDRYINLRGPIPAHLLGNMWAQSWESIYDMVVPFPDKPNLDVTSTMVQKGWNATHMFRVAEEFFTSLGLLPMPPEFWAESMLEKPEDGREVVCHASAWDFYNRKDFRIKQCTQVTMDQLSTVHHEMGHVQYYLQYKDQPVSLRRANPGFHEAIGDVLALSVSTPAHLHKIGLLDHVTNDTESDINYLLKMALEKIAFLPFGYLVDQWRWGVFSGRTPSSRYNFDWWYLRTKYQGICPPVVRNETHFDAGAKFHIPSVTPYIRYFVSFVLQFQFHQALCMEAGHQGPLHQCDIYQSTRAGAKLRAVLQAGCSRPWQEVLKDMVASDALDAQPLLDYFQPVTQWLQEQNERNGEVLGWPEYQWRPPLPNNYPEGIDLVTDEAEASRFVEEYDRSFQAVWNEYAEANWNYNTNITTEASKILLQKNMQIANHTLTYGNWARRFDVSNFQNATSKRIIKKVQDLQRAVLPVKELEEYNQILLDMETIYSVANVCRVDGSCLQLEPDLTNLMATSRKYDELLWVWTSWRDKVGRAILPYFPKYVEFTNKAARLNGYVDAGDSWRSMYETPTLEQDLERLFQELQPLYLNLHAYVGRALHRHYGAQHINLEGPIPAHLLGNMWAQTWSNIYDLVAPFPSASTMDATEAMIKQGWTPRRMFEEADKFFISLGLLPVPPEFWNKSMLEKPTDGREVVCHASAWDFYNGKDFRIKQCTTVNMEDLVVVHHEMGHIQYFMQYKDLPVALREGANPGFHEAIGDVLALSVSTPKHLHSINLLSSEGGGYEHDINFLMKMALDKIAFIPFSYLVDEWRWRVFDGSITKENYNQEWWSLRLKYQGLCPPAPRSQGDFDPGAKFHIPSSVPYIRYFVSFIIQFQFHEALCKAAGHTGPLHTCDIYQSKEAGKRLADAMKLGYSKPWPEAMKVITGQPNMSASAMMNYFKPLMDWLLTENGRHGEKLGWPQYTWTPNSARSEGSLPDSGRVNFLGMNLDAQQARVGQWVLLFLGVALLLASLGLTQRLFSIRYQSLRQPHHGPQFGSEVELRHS
Experiment: Inhibitory activity of angiotensin converting enzyme (rabbit lung acetone powder extract, HHL substrate, modified Cushman method)
Assay type: biochemical
Settings: preincubated 30 minutes, reacted with HHL at 37° C. for 30 minutes; for inhibition at 0.0002 µM: inhibitor concentration 2 × 10^-4 μM; for inhibition at 20 pM: inhibitor concentration 2 × 10^-5 μM
Description: The inhibitory activity of angiotensin converting enzyme for the compounds of this invention prepared by above examples was determined as follows;
The inhibitory activity was determined by using a modification of the method of Cushman, et al. [Biochemical Pharmacology, 20, 1637(1971)] Rabbit lung acetone powder was extracted with 10 volumes of 50 mM sodium borate buffer solution(pH 8.3) by homogenization at 4° C. and centrifuged for 40 minutes at 40,000 ×g.
The supernatant which contained angiotensin converting enzyme was used for ACE assay. Hippuryl-L-histidyl-L-leucine(HHL) was used as a substrate of enzymatic reaction and the reaction was determined in 13×100 mm of test tube.
The assay mixture (total volume, 0.25 ml) consisted of 50 mM sodium borate buffer (pH 8.3), 300 mM sodium chloride, and 5 mM HHL(pH 8.3), and they were reacted by addition of 0~10 mU of rabbit lung acetone powder extract for 30 minutes at 37° C.
The volume of enzyme extract was 0.15 ml or below and the reaction solution was preincubated at 37° C. for 30 minutes without the substrate and after adding HHL reacted for 30 minutes, the reaction was terminated by addition of 0.25 ml of 1N-HCl aqueous solution.
In the case of blank assay, hydrochloric acid was added before adding the enzyme extract. Hippuric acid was extracted with 1.5 ml of ethyl acetate which was separated by centrifuging at 3,000 rpm for 10 minutes. 1.0ml of ethyl acetate layer was transferred into the test tube and evaporated at 90° C. for 1 hour on temp-block.
Hippuric acid was dissolved in 1.0 ml of 50 mM sodium borate buffer (pH 8.3) and qualified from its absorbance at 228 nm. The final concentration of inhibitor was adjusted to 2×10^-4, 2×10^-5 μM with sodium borate buffer solution(pH 8.3) and reaction solution without the substrate was preincubated for 30 minutes and after adding the substrate, it was reacted at 37° C. for 30 minutes and terminated with 1N-HCl.
The synthesized inhibitors with non-water soluble property were dissolved by ultrasonic treatment.

| SMILES | inhibition at 0.0002 µM [%] | inhibition at 20 pM [%] |
| --- | --- | --- |
| CCCCCCCCCCCCCCCCCCOCC(COP(=O)(O)SC[C@@H](C)C(=O)N1CCC[C@H]1C(=O)O)OC(C)=O (mixture of isomers) [Compound 4, rac-1-O-octadecyl-2-O-acetyl-glyceryl-3-phosphoryl captopril] | 98 | 98 |
| CCCCCCCCCCCCCCCCCCSCC(COP(=O)(O)SC[C@@H](C)C(=O)N1CCC[C@H]1C(=O)OCc1ccc([N+](=O)[O-])cc1)OC(=O)CCCCCCCCCCCCCCC (mixture of isomers) [Compound 5, rac-1-S-octadecyl-2-O-palmitoyl-thioglyceryl-3-phosphoryl captopril-p-nitrobenzyl ester] | 31 | 4 |
| CCCCCCCCCCCCCCCCCCOCC(COP(=O)(O)SC[C@@H](C)C(=O)N1CCC[C@H]1C(=O)OCc1ccc([N+](=O)[O-])cc1)OC(C)=O (mixture of isomers) [Compound 3, rac-1-O-octadecyl-2-O-acetyl-glyceryl-3-phosphoryl captopril-p-nitrobenzyl ester] | 85 | 60 |
| CCCCCCCCCCCCCCCCCCOCC(COP(=O)(O)SC[C@@H](C)C(=O)N1CCC[C@H]1C(=O)O)OC(=O)CCCCCCCCCCCCCCC (mixture of isomers) [Compound 2, rac-1-O-octadecyl-2-O-palmitoyl-glyceryl-3-phosphoryl captopril] | 97 | 80 |
| CCCCCCCCCCCCCCCCCCOCC(COP(=O)(O)SC[C@@H](C)C(=O)N1CCC[C@H]1C(=O)OCc1ccc([N+](=O)[O-])cc1)OC(=O)CCCCCCCCCCCCCCC (mixture of isomers) [Compound 1, rac-1-O-octadecyl-2-O-palmitoyl-glyceryl-3-phosphorylcaptopril-p-nitrobenzyl ester] | 77 | 39 |
| CCCCCCCCCCCCCCCCCCSCC(COP(=O)(O)SC[C@@H](C)C(=O)N1CCC[C@H]1C(=O)O)OC(=O)CCCCCCCCCCCCCCC (mixture of isomers) [Compound 6, rac-1-S-octadecyl-2-O-palmitoyl-thioglyceryl-3-phosphoryl captopril] | 92 | 70 |
| CCCCCCCCCCCCCCCCCCSCC(COP(=O)(O)SC[C@@H](C)C(=O)N1CCC[C@H]1C(=O)OCc1ccc([N+](=O)[O-])cc1)OC(C)=O (mixture of isomers) [Compound 7, rac-1-S-octadecyl-2-O-acetyl-thioglyceryl-3-phosphoryl captopril-p-nitrobenzyl ester] | 78 | 43 |
| CCCCCCCCCCCCCCCCCCSCC(COP(=O)(O)SC[C@@H](C)C(=O)N1CCC[C@H]1C(=O)O)OC(C)=O (mixture of isomers) [Compound 8, rac-1-S-octadecyl-2-O-acetyl-thioglyceryl-3-phosphoryl captopril] | 90 | 80 |
